Laboratory results as given in ChEMBL document CHEMBL1201862, “PubChem BioAssay data set” (2004).
Activity calls are given as the source filed them.

Experiments:
Protein skinhead-1 = molecular target: T1, Protein skinhead-1 (Caenorhabditis elegans, UniProt P34707); format: functional
T1 sequence (P34707 whole entry): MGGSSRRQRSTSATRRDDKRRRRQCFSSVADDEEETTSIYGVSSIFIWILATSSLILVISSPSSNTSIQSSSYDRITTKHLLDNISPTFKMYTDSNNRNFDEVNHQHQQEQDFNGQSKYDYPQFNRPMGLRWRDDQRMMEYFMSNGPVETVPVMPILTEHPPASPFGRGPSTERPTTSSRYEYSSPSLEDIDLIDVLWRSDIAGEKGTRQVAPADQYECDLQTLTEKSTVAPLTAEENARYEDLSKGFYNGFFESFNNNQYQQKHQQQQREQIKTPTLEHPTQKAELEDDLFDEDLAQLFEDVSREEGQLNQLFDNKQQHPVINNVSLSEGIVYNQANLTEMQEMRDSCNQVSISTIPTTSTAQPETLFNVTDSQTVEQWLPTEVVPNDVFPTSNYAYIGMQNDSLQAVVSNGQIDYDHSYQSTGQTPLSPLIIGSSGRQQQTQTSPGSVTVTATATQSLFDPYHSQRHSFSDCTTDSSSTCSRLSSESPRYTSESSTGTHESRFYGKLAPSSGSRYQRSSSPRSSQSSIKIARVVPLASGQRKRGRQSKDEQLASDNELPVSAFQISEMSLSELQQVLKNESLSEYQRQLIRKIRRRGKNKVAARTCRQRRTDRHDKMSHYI

[1] = inhibitors of firefly luciferase expression or activity, dose response, H4 neuroglioma cells, luminescence (AID 1990); format: functional, cell-based
[2] = Luminescence Cell-Based Dose Response HTS to Identify Inhibitors of 5'UTR Stem-Loop Driven Prion Protein mRNA Translation in H4 Neuroglioblastoma Cells. [Related pubchem assays: 1827 (Project Summary), 1813 (Primary HTS)]; format: functional
[3] = inhibitors of SNCA 5'UTR-driven reporter translation, confirmation, H4 neuroglioma cells, luminescence (AID 1988); format: functional, cell-based
H9c2 = experiment: cells; format: functional, cell-based; conditions: Rattus norvegicus, H9c2, Myocardium;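 note: confirmatory concentration-response retest of ultra-high-throughput screening hits for modulation of myocardial damage; cell death induced by hydrogen peroxide oxidative stress; compound pretreatment for 60 min then peroxide exposure for 2 h; potency is for protecting the cells against peroxide damage rather than for killing them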
[4] = molecular target: T2, Corticotropin-releasing factor receptor 2/Corticotropin-releasing factor-binding protein (Homo sapiens, UniProt P24387+Q13324); experiment: Dose Response confirmation of uHTS hits for small molecule antagonists of the CRF-binding protein and CRF-R2 receptor complex.; format: functional; conditions: read-out: IC50_Mean
T2 sequence (Q13324 whole entry): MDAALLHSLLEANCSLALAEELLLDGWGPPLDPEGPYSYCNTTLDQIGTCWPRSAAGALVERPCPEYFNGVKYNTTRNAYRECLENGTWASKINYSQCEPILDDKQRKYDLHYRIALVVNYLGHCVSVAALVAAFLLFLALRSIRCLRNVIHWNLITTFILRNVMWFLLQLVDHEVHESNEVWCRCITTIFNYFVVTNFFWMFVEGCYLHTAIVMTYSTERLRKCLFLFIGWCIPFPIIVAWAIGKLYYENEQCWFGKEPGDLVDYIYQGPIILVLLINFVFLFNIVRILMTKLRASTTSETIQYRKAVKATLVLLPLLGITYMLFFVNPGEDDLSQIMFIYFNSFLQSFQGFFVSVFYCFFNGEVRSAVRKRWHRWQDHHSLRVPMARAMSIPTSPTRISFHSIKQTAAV
T2 sequence (P24387 whole entry): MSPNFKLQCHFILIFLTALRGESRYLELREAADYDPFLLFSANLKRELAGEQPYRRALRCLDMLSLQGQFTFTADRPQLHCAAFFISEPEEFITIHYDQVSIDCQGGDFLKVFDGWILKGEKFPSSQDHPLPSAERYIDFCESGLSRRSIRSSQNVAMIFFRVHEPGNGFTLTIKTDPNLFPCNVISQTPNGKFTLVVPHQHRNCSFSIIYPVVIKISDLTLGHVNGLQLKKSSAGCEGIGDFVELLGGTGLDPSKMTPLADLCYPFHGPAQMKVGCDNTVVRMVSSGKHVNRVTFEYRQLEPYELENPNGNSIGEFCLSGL

[5] = molecular target: T2, Corticotropin-releasing factor receptor 2/Corticotropin-releasing factor-binding protein; experiment: activators of CRF receptor 2 with binding protein – uHTS hits, confirmation (AID 602473); format: functional; conditions: read-out: EC50_Mean
[6] = molecular target: T3, Replicative DNA helicase DnaB (Mycobacterium tuberculosis, UniProt P9WMR3); experiment: DnaB intein splicing inhibitors, dose response, biochemical, cell-free fluorescence (AID 449749); format: functional
T3 sequence (P9WMR3 whole entry): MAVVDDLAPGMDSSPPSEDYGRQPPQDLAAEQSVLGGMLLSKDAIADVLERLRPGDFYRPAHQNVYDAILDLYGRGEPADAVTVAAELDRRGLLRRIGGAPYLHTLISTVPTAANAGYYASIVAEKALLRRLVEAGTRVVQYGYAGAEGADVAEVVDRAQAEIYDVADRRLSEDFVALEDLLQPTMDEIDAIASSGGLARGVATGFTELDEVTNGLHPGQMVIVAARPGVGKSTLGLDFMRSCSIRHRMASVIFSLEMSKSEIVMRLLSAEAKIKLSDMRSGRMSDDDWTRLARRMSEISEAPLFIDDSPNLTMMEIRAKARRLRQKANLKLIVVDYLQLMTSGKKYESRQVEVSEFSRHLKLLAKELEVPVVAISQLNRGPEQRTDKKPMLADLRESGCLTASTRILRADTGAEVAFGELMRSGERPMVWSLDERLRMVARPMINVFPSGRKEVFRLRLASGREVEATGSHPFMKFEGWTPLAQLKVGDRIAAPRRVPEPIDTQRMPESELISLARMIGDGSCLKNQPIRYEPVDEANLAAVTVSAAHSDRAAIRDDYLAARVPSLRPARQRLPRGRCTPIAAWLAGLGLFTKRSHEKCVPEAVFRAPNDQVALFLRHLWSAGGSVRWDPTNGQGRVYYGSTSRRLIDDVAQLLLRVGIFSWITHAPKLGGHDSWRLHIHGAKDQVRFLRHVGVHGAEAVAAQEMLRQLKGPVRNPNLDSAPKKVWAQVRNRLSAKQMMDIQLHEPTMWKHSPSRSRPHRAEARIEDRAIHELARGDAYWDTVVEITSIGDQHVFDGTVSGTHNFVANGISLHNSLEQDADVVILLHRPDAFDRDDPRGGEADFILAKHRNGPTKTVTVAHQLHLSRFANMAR

Protein RecA = molecular target: T4, Protein RecA (Mycobacterium tuberculosis, UniProt P9WHJ3); experiment: Fluorescence Cell-Free Homogeneous Dose Retest to Identify Inhibitors of RecA-Intein Splicing Activity. [Related pubchem assays (depositor defined):AID2097, AID2223, AID489010, AID492950]; format: functional
T4 sequence (P9WHJ3 whole entry): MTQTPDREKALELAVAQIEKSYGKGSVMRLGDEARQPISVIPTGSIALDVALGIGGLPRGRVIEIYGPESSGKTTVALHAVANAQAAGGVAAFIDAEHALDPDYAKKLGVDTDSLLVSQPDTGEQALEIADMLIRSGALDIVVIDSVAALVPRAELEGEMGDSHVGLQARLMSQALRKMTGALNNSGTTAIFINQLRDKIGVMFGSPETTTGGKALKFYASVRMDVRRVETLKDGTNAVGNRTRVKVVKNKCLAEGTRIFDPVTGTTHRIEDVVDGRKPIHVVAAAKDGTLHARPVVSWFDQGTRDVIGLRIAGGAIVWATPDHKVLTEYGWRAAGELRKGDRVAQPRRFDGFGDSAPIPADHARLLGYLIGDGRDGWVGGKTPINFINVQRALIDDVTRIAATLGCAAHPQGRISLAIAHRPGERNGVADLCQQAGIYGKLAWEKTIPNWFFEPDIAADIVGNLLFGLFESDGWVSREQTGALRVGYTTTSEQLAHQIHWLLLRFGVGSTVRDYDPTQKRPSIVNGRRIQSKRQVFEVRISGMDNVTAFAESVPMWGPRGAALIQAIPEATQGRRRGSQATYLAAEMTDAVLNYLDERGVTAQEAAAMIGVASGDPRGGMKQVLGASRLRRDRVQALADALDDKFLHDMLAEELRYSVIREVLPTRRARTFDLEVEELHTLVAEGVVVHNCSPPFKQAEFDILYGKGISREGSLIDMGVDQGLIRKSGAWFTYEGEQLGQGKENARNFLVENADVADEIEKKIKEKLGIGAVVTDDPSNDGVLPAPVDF

Cytochrome P450 3A4 = Cytochrome P450 3A4 (Homo sapiens, UniProt P08684);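 note: CYP3A4 tested as one member of a cytochrome P450 panel screen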
Cytochrome P450 3A4, sequence (P08684 whole entry): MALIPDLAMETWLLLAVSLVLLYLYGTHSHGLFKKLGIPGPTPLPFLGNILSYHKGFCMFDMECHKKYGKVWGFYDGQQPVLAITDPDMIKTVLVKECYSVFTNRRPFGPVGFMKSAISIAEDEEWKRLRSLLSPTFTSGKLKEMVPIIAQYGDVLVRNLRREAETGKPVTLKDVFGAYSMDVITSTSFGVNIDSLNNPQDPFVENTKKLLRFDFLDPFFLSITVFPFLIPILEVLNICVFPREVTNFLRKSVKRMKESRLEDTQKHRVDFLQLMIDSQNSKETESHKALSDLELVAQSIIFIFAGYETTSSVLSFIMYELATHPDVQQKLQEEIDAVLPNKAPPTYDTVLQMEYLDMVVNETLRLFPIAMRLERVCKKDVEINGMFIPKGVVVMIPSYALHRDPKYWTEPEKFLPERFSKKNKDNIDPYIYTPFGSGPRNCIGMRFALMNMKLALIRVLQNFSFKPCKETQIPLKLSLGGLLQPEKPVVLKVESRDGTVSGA

Cytochrome P450 2C9 = Cytochrome P450 2C9 (Homo sapiens, UniProt P11712)
Cytochrome P450 2C9, sequence (P11712 whole entry): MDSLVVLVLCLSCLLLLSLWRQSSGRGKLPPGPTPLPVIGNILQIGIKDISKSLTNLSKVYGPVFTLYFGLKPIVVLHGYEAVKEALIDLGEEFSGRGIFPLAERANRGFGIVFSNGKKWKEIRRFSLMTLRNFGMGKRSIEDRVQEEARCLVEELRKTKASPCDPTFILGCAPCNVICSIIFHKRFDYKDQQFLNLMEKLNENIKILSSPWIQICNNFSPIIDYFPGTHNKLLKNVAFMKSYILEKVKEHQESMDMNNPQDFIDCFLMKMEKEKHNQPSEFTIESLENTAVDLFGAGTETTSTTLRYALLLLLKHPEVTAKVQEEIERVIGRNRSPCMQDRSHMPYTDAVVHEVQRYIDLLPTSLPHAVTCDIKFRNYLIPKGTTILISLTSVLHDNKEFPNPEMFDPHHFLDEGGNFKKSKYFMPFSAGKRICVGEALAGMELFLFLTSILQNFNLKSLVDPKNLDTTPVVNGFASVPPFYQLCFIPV

[7] = molecular target: T5, Heat shock factor protein 1 (Mus musculus, UniProt P38532); experiment: inhibition of MG132-induced HSE-luciferase signal, confirmation, cell-based, NIH3T3, luminescence, dose retest (AID 2382); format: functional;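 note: NIH3T3 fibroblasts with HSF1-driven luciferase reporter stressed by proteasome inhibitor MG132; luminescence from HSF1-driven luciferase expression after 8 hours of MG132 stress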
T5 sequence (P38532 whole entry): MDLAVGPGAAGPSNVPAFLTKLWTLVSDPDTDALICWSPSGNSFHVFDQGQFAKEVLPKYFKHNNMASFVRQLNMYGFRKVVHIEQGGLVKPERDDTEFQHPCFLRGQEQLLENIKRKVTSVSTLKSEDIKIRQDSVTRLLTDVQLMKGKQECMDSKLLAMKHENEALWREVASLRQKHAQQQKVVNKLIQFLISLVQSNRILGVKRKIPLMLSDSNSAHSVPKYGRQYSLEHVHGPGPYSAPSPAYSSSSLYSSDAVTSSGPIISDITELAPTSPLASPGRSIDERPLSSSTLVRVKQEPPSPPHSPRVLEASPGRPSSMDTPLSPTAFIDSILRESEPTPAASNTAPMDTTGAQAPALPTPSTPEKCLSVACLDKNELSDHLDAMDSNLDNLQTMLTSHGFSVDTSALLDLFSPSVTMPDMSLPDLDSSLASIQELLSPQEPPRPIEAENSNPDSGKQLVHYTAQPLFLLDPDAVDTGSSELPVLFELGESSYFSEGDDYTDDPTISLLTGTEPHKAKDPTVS

Compound | IC50 (Protein skinhead-1) | EC50 [1] | EC50 [2] | EC50 [3] | other results
Cc1nc2nc(CSc3nc4ccccc4s3)cc(O)n2n1 | > 100 µM (inactive) |  |  |  | 
C=CCc1ccccc1OCC(=O)N/N=C/c1ccc(OC(C)=O)cc1OC(C)=O |  | 12.3 µM (active) | 14.6 µM (active) | 10.6 µM (active) | IC50 (H9c2): > 79 µM (inactive)
CC(C)OC(=O)CSc1nnnn1-c1ccc2c(c1)OCCO2 | > 100 µM (inactive) |  |  |  | 
CCCOc1cc(C)c(S(=O)(=O)NCc2cccs2)cc1C | > 100 µM (inactive) |  |  |  | 
Cc1ccc(-c2ccc(SCC(=O)NCC3CCCO3)nn2)cc1 (stereo unspecified) |  |  |  |  | IC50 [4]: > 47.1 µM (inactive); EC50 [5]: > 53 µM (inactive)
COc1ccccc1NC(=O)CN1C(=O)CCS(=O)(=O)c2ccccc21 |  |  |  |  | IC50 [4]: > 47.1 µM (inactive); EC50 [5]: > 53 µM (inactive)
O=C(NCc1ccc(F)cc1)C(=O)NCC1OCCN1C(=O)c1ccc(Cl)cc1 (stereo unspecified) |  |  |  |  | IC50 [4]: > 47.1 µM (inactive); EC50 [5]: > 53 µM (inactive)
CC(C)NC(=O)COC(=O)c1ccc(S(=O)(=O)N2CCCC2)cc1 |  | > 120 µM (not active) | > 120 µM (not active) | > 120 µM (not active) | 
C[C@](N)(CCP(=O)(O)O)C(=O)O | > 100 µM (inactive) |  |  |  | 
Cc1cccc(NC2=NC(=O)/C(=C/c3cccn3C)S2)c1C | > 100 µM (inactive) |  |  |  | 
Clc1ccc(N2CCN(c3ccnc(Cl)n3)CC2)cc1 | 26.3 µM (active) |  |  |  | 
Cc1c(OCC(=O)Nc2cccnc2)ccc2c3c(c(=O)oc12)CCC3 |  |  | > 120 µM (not active) | > 120 µM (not active) | AC50 [6]: 2.65 µM (active); EC50 (Protein RecA): 2.26 µM (active)
CCn1c(CCC(=O)Nc2nc3c(s2)CCCC3)nc2cc(S(=O)(=O)N(C)C)ccc21 | > 100 µM (inactive) |  |  |  | 
COc1ccc(OC)c(Nc2nc(-c3cccc([N+](=O)[O-])c3)nc3ccccc23)c1 |  | > 120 µM (not active) | 21.7 µM (active) | 69.3 µM (active) | AC50 (Cytochrome P450 3A4): 2.82 µM (inconclusive); AC50 (Cytochrome P450 2C9): 0.355 µM (inconclusive)
O=C(CSc1nc2ccccc2c(=O)n1Cc1ccco1)N1CCCC1 |  | 20.3 µM (active) | > 120 µM (not active) | > 120 µM (not active) | 
COc1ccc(Cc2c(-c3ccco3)nc3c(C)cc(Br)cn23)c(C)c1 | > 100 µM (inactive) |  |  |  | 
O=C1C(=C2SCCCS2)CC/C1=C\c1ccc(F)cc1 |  | 0.238 µM (active) | 4.36 µM (active) | 0.116 µM (active) | 
Cc1cc(/C(O)=C(/C([S-])=Nc2ccccc2)[n+]2ccccc2)c(C)n1-c1ccccc1 |  | > 120 µM (not active) | > 120 µM (not active) | > 120 µM (not active) | EC50 [7]: 2.53 µM (active)
O=C(Nc1ccc(OC(=O)N2CCCC2)cc1)N1CCOCC1 | > 100 µM (inactive) |  |  |  | 
COc1cc2c(cc1OC)C(C)N(C(=O)c1cc(C)on1)CC2 (stereo unspecified) |  | 4.12 µM (active) | 3.88 µM (active) | 0.415 µM (active) | 
O=C(Nc1ccc(S(=O)(=O)NC2CCCCC2)cc1)c1ccco1 |  | 26.7 µM (active) | > 120 µM (not active) | > 120 µM (not active) | 
COC(=O)C(F)(F)Sc1c(C)[nH]c2ccccc12 |  |  |  |  | IC50 [4]: 15.4 µM (active); EC50 [5]: > 53 µM (inactive)
CN1CCN(CC(=O)Nc2cc(N(C)C)nc3ccccc23)CC1 |  |  |  |  | IC50 [4]: > 47.1 µM (inactive); EC50 [5]: > 53 µM (inactive)
